We go through 1 compound from ChEMBL document CHEMBL4422660, “Synthesis of NSC 106084 and NSC 14778 and evaluation of their DNMT inhibitory activity” (Bioorg Med Chem Lett, 2019).

Calls of active or inactive are those of the source. The rule behind the calls is not given here.

In the assay the test system is DNA. Put plainly: Induction of DNA intercalation using nucleosomal DNA (unknown origin) up to 1 mM by CYBR Green dye-based fluorescence assay. It is filed as nucleic-acid assay.

Take `O=C(O)c1cc(Cc2ccc(O)c(C(=O)O)c2)ccc1O`: the result was inactive.
